Measurements as given in US20210246115A1 (Bioimics AB, priority 2017, published 2021).
Converted amounts (≈) assume the structure as drawn. Structures can show the parent of a compound that is named as a salt.

What was measured:
[1] = test system: Staphylococcus aureus (ATCC25923); test: MIC, broth microdilution (CLSI), Staphylococcus aureus ATCC25923; conditions: Staphylococcus aureus, ATCC25923, read-out: S. aureus ATCC 25923 MIC
Description: Initial minimal inhibitory concentration (MIC) tests were made on two bacterial strains: • Escherichia coli (ATCC25922) • Staphylococcus aureus (ATCC25923).
MIC values were determined using the standard broth microdilution procedure based on the guidelines by the Clinical and Laboratory Standards Institute (CLSI). Briefly, the compounds were dissolved in DMSO to 10 mM. They were diluted in cation-adjusted Mueller-Hinton broth (CAMHB) to four times the highest concentration tested. A serial two-fold dilution in CAMHB was done in microdilution plates. The inoculum of bacterial strain to be tested was prepared by making a suspension of colonies from an 18 to 24 hours old plate in CAMHB. The inoculum was diluted so that, after inoculation, each well contained approximately 5×10^5 CFU/mL. To a volume of 50 μl compound in CA 3 an equal volume of inoculum was added. The tray was sealed in a plastic bag and incubated at 35° C. for 16 to 20 hours. To aid in the detection of growth the dye resazurin was added to a final concentration 0.001% and incubated at room temperature for 1 h. Reduction of resazurin, and therefore bacterial growth, was seen as a change from blue to pink.

[2] = test system: E. coli RNase P RNA, M1 RNA; test: Inhibition of bacterial RNase P activity, IC50 determination (cleavage of pATSerUG by M1 RNA); assay type: biochemical; conditions: NI: No inhibition
[3] = test system: Escherichia coli (ATCC25922); test: MIC, broth microdilution (CLSI), Escherichia coli; conditions: Escherichia coli, ATCC25922, read-out: E. coli ATCC 25922 MIC, Table XIII

SMILES	MIC [1] [µg/mL]	IC50 [2] [µM]	MIC [3] [µg/mL]
Cc1cccc(C(CC(=O)NC2CCC(N)CC2)c2cn(CC3CCCCC3)c3ccc(C#N)cc23)c1.Cl [Compound 236, N-((1S,4S)-4-aminocyclohexyl)-3-(5-cyano-1-(cyclohexylmethyl)-1H-indol-3-yl)-3-(m-tolyl)propanamide hydrochloride salt]	9	20	68
Cl.N[C@H]1CC[C@H](NC(=O)CCc2cn(CC3CCCCC3)c3ccc(-c4cccc(OC(F)(F)F)c4)cc23)CC1 [Compound 213, N-((1R,4R)-4-aminocyclohexyl)-3-(1-(cyclohexylmethyl)-5-(3-(trifluoromethoxy)phenyl)-1H-indol-3-yl) propanamide hydrochloride salt]	18	3	296
Cc1cccc(C(CC(=O)N[C@H]2CC[C@H](N)CC2)c2cn(CC3CCCC3)c3ccccc23)c1.Cl (stereo partly drawn) [Compound 111, N-((1R,4R)-4-aminocyclohexyl)-3-(1-(cyclopentylmethyl)-1H-indol-3-yl)-3-(m-tolyl)propanamide hydrochloride salt]	4	6.8	32
Cc1cccc(-c2ccc3c(c2)c(CC(=O)NC2CCC(N)CC2)cn3C(=O)C2CCCCC2)c1.Cl [Compound 259, N-((1S,4S)-4-aminocyclohexyl)-2-(1-(cyclohexanecarbonyl)-5-(m-tolyl)-1H-indol-3-yl)acetamide hydrochloride salt]	267	20	> 512
Cl.N[C@H]1CC[C@H](NC(=O)CCc2nn(CC3CCCCC3)c3ccc(Br)cc23)CC1 [Compound 270, N-((1r,4r)-4-aminocyclohexyl)-3-(5-bromo-1-(cyclohexylmethyl)-1H-indazol-3-yl)propanamide hydrochloride salt]	64	135	127
Cc1cccc(C(CC(=O)NC2CCC(N)CC2)c2cn(CC3CCCCC3)c3ccc(-c4ccncc4)cc23)c1 (stereo not drawn) [Compound 188, N-(4-aminocyclohexyl)-3-(1-(cyclohexylmethyl)-5-(pyridin-4-yl)-1H-indol-3-yl)-3-(m-tolyl) propanamide hydrochloride salt]	5	5.8	> 512
Cc1cccc(C(CC(=O)NCC2CCC(N)CC2)c2cn(CC3CCCCC3)c3ccc(Br)cc23)c1.Cl [Compound 214, N-(((1R,4R)-4-aminocyclohexyl)methyl)-3-(5-bromo-1-(cyclohexylmethyl)-1H-indol-3-yl)-3-(m-tolyl)propanamide hydrochloride salt]	10	13	> 512
Cc1cccc(C(CC(=O)NC2CCNCC2)c2cn(CC3CCOCC3)c3ccccc23)c1.Cl (stereo not drawn) [Compound 284, N-(piperidin-4-yl)-3-(1-((tetrahydro-2H-pyran-4-yl)methyl)-1H-indol-3-yl)-3-(m-tolyl)propanamide hydrochloride salt]	> 512	316	> 512
NC1CCC(NCCC(c2cc(Cl)cc(Cl)c2)c2cn(CC3CCCCC3)c3ccccc23)CC1 [Compound 171, (1S,4S)-N1-(3-(1-(cyclohexylmethyl)-1H-indol-3-yl)-3-(3,5-dichlorophenyl)propyl) cyclohexane-1,4-diamine hydrochloride salt]	2	12	5
Cl.NC1CCC(NC(=O)CC(c2ccnc(O)c2)c2cn(CC3CCCCC3)c3ccccc23)CC1 [Compound 157, N-((1S,4S)-4-aminocyclohexyl)-3-(1-(cyclohexylmethyl)-1H-indol-3-yl)-3-(2-hydroxypyridin-4-yl)propanamide hydrochloride salt]	131	3.4	262
Cc1cccc(C(CC(=O)NCCN(C)C)c2cn(CC3CCCCC3)c3ccccc23)c1.Cl (stereo not drawn) [Compound 103, 3-(1-(cyclohexylmethyl)-1H-indol-3-yl)-N-(2-(dimethylamino)ethyl)-3-(m-tolyl)propanamide hydrochloride salt]	16	200	128
Cc1cccc(C(CC(=O)N[C@H]2CC[C@H](N)CC2)c2cn(CC3CC3)c3ccccc23)c1.Cl (stereo partly drawn) [Compound 124, N-((1R,4R)-4-aminocyclohexyl)-3-(1-(cyclopropylmethyl)-1H-indol-3-yl)-3-(m-tolyl)propanamide hydrochloride salt]	128	149	256
Cl.N[C@H]1CC[C@H](NC(=O)CCc2cn(CC3CCCCC3)c3ccc(Br)cc23)CC1 [Compound 156, N-((1R,4R)-4-aminocyclohexyl)-3-(5-bromo-1-(cyclohexylmethyl)-1H-indol-3-yl)propanamide hydrochloride salt]	16	16	32
COc1cccc(C(CC(=O)N[C@H]2CC[C@@H](N)CC2)c2cn(Cc3ccccc3)c3ccccc23)c1.Cl (stereo partly drawn) [Compound 66, N-((1S,4S)-4-aminocyclohexyl)-3-(1-benzyl-1H-indol-3-yl)-3-(3-methoxyphenyl) propanamide hydrochloride salt]	33	195	133
Cc1cccc(C(CC(=O)NC2CCNCC2)c2cn(CC3CCCCC3)c3ccc(Br)cc23)c1.Cl (stereo not drawn) [Compound 121, 3-(5-bromo-1-(cyclohexylmethyl)-1H-indol-3-yl)-N-(piperidin-4-yl)-3-(m-tolyl) propanamide hydrochloride salt]	8	8	256
Cc1cccc(C(CC(=O)NCCC2CCNCC2)c2cn(Cc3ccccc3)c3ncccc23)c1.Cl (stereo not drawn) [Compound 39, 3-(1-benzyl-1H-pyrrolo[2,3-b]pyridin-3-yl)-N-(2-(piperidin-4-yl)ethyl)-3-(m-tolyl)propanamide hydrochloride salt]	265	959	> 512
Cl.O=C(CCc1cn(CC2CCCCC2)c2ccccc12)NCCC1CCNCC1 [Compound 117, 3-(1-(cyclohexylmethyl)-1H-indol-3-yl)-N-(2-(piperidin-4-yl)ethyl)propanamide hydrochloride salt]	256	166	256
Cc1cccc(C(CC(=O)NC2CCC(N)CC2)c2cn(CC3CCCCC3)c3c(Br)cccc23)c1.Cl [Compound 174, N-((1S,4S)-4-aminocyclohexyl)-3-(7-bromo-1-(cyclohexylmethyl)-1H-indol-3-yl)-3-(m-tolyl)propanamide hydrochloride salt]	150	32	> 512
Cc1cccc(C(CC(=O)N2CCC(CN)CC2)c2cn(CC3CCCCC3)c3ccccc23)c1.Cl (stereo not drawn) [Compound 167, 1-(4-(aminomethyl)piperidin-1-yl)-3-(1-(cyclohexylmethyl)-1H-indol-3-yl)-3-(m-tolyl)propan-1-one hydrochloride salt]	8	14	65
N[C@H]1CC[C@H](NC(=O)C2CCN(Cc3cn(CC4CCCCC4)c4ccc(Br)cc34)CC2)CC1 [Compound 272, N-((1R,4R)-4-aminocyclohexyl)-1-((5-bromo-1-(cyclohexylmethyl)-1H-indol-3-yl)methyl)piperidine-4-carboxamide]	34 (≈ 64.2 µM)	121	68 (≈ 128 µM)
